Laboratory results taken from PubChem BioAssay (NCI).
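Cells were grown in 96-well plates and exposed to each compound for 48 hours at five concentrations; endpoints were interpolated linearly between bracketing concentrations, or set to the highest concentration if not reached. At the TGI there is no net growth.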

Tests used:
Test in all cases: DTP human tumour cell line panel, 48 h
SK-OV-3 ovarian = test system: SK-OV-3 ovarian
UACC-62 melanoma = test system: UACC-62 melanoma
PC-3 prostate = test system: PC-3 prostate
SK-MEL-28 melanoma = test system: SK-MEL-28 melanoma
NCI-H23 lung = test system: NCI-H23 lung
IGROV1 ovarian = test system: IGROV1 ovarian
CAKI-1 renal = test system: CAKI-1 renal
HCT-116 colon = test system: HCT-116 colon
TK-10 renal = test system: TK-10 renal
SNB-19 CNS = test system: SNB-19 CNS
OVCAR-8 ovarian = test system: OVCAR-8 ovarian
KM12 colon = test system: KM12 colon
T-47D breast = test system: T-47D breast

COC(=O)[C@@H]1CN(C(C)=O)C(=O)N1
TGI (SK-OV-3 ovarian): > 100 µM
TGI (UACC-62 melanoma): > 100 µM
TGI (PC-3 prostate): > 100 µM
TGI (SK-MEL-28 melanoma): > 100 µM
TGI (NCI-H23 lung): > 100 µM
TGI (IGROV1 ovarian): > 100 µM
TGI (CAKI-1 renal): > 100 µM
TGI (HCT-116 colon): > 100 µM
TGI (TK-10 renal): > 100 µM
TGI (SNB-19 CNS): > 100 µM
TGI (OVCAR-8 ovarian): > 100 µM
TGI (KM12 colon): > 100 µM
TGI (T-47D breast): > 100 µM

CC(=O)NC1C(OCc2ccccc2)OC(CO)C(O)C1OC(C)C(=O)NC(C(=O)N[C@@H](CCC(=O)NCCNCCNc1c2ccccc2nc2cccc([N+](=O)[O-])c12)C(N)=O)C(C)C (stereo partly drawn)
TGI (SK-OV-3 ovarian): > 100 µM
TGI (PC-3 prostate): > 100 µM
TGI (SK-MEL-28 melanoma): > 100 µM
TGI (NCI-H23 lung): > 100 µM
TGI (IGROV1 ovarian): > 100 µM
TGI (CAKI-1 renal): > 100 µM
TGI (HCT-116 colon): 56.2 µM
TGI (TK-10 renal): > 100 µM
TGI (SNB-19 CNS): > 100 µM
TGI (OVCAR-8 ovarian): > 100 µM
TGI (KM12 colon): 98.7 µM
TGI (T-47D breast): > 100 µM

O=C1/C(=C/c2ccccc2O)N=C(c2ccccc2)N1C1Nc2cc3c(cc2S1)NC(N1C(=O)/C(=C/c2ccccc2O)N=C1c1ccccc1)S3 (stereo not drawn)
TGI (SK-OV-3 ovarian): > 100 µM
TGI (PC-3 prostate): > 100 µM
TGI (SK-MEL-28 melanoma): > 100 µM
TGI (NCI-H23 lung): > 100 µM
TGI (IGROV1 ovarian): > 100 µM
TGI (CAKI-1 renal): > 100 µM
TGI (HCT-116 colon): > 100 µM
TGI (TK-10 renal): > 100 µM
TGI (OVCAR-8 ovarian): > 100 µM
TGI (KM12 colon): > 100 µM
TGI (T-47D breast): > 100 µM

COC1(OC)c2no[n+]([O-])c2CCC1O (stereo not drawn)
TGI (SK-OV-3 ovarian): > 100 µM
TGI (UACC-62 melanoma): > 100 µM
TGI (PC-3 prostate): > 100 µM
TGI (SK-MEL-28 melanoma): > 100 µM
TGI (NCI-H23 lung): > 100 µM
TGI (IGROV1 ovarian): > 100 µM
TGI (CAKI-1 renal): > 100 µM
TGI (HCT-116 colon): > 100 µM
TGI (TK-10 renal): > 100 µM
TGI (SNB-19 CNS): > 100 µM
TGI (OVCAR-8 ovarian): > 100 µM
TGI (KM12 colon): > 100 µM
TGI (T-47D breast): > 100 µM

COC(=O)/C=C(/C)n1nc2ccccc2n1
TGI (SK-OV-3 ovarian): > 100 µM
TGI (UACC-62 melanoma): > 100 µM
TGI (PC-3 prostate): > 100 µM
TGI (SK-MEL-28 melanoma): > 100 µM
TGI (NCI-H23 lung): > 100 µM
TGI (IGROV1 ovarian): > 100 µM
TGI (CAKI-1 renal): > 100 µM
TGI (HCT-116 colon): > 100 µM
TGI (TK-10 renal): > 100 µM
TGI (SNB-19 CNS): > 100 µM
TGI (OVCAR-8 ovarian): > 100 µM
TGI (KM12 colon): > 100 µM
TGI (T-47D breast): > 100 µM

CC[C@]1(Cc2ccc(OC)c(OC)c2)C=[N+]([O-])O[C@H](OC2CCCC2(c2ccccc2)c2ccccc2)[C@@H]1OC(=O)c1ccccc1 (stereo partly drawn)
TGI (SK-OV-3 ovarian): > 100 µM
TGI (UACC-62 melanoma): > 38.6 µM
TGI (PC-3 prostate): > 100 µM
TGI (SK-MEL-28 melanoma): > 100 µM
TGI (NCI-H23 lung): > 45.9 µM
TGI (IGROV1 ovarian): > 100 µM
TGI (CAKI-1 renal): > 100 µM
TGI (HCT-116 colon): > 100 µM
TGI (TK-10 renal): > 33.4 µM
TGI (SNB-19 CNS): > 100 µM
TGI (OVCAR-8 ovarian): > 100 µM
TGI (KM12 colon): 22.9 µM
TGI (T-47D breast): > 27.2 µM

COCCOC(=O)c1c(C)n([O-])c2cc(Cl)c(Cl)cc2[n+]1=O
TGI (SK-OV-3 ovarian): 47.5 µM
TGI (UACC-62 melanoma): 36.4 µM
TGI (PC-3 prostate): > 100 µM
TGI (SK-MEL-28 melanoma): 61.7 µM
TGI (NCI-H23 lung): 79.2 µM
TGI (IGROV1 ovarian): 23.5 µM
TGI (CAKI-1 renal): 45.4 µM
TGI (TK-10 renal): 98.3 µM
TGI (SNB-19 CNS): > 100 µM
TGI (OVCAR-8 ovarian): 25.7 µM
TGI (KM12 colon): 25.7 µM
TGI (T-47D breast): 61.2 µM

C=C(C)C1=CCC[C@]2(C1)N=C(OC)[C@@H](C(C)C)N=C2OC
TGI (SK-OV-3 ovarian): > 100 µM
TGI (UACC-62 melanoma): > 100 µM
TGI (PC-3 prostate): > 100 µM
TGI (SK-MEL-28 melanoma): > 100 µM
TGI (NCI-H23 lung): > 100 µM
TGI (IGROV1 ovarian): > 100 µM
TGI (CAKI-1 renal): > 100 µM
TGI (HCT-116 colon): > 100 µM
TGI (TK-10 renal): > 100 µM
TGI (SNB-19 CNS): > 100 µM
TGI (OVCAR-8 ovarian): > 100 µM
TGI (KM12 colon): > 100 µM
TGI (T-47D breast): > 100 µM

O=C(CN1CCCCC1)Nc1ccc2sc3ccccc3c(=O)c2n1
TGI (SK-OV-3 ovarian): 48.9 µM
TGI (UACC-62 melanoma): 30.1 µM
TGI (PC-3 prostate): 50.1 µM
TGI (SK-MEL-28 melanoma): 35.2 µM
TGI (NCI-H23 lung): 38.8 µM
TGI (IGROV1 ovarian): 37.4 µM
TGI (CAKI-1 renal): 37.7 µM
TGI (HCT-116 colon): 26.2 µM
TGI (TK-10 renal): 50.4 µM
TGI (SNB-19 CNS): 59.8 µM
TGI (OVCAR-8 ovarian): 47.4 µM
TGI (KM12 colon): 38.7 µM
TGI (T-47D breast): > 100 µM

CSc1nc(C#N)c(/N=C\N(C)C)n1C
TGI (SK-OV-3 ovarian): > 100 µM
TGI (UACC-62 melanoma): > 100 µM
TGI (PC-3 prostate): > 100 µM
TGI (SK-MEL-28 melanoma): > 100 µM
TGI (NCI-H23 lung): > 100 µM
TGI (IGROV1 ovarian): > 100 µM
TGI (CAKI-1 renal): > 100 µM
TGI (HCT-116 colon): > 100 µM
TGI (TK-10 renal): > 100 µM
TGI (SNB-19 CNS): > 100 µM
TGI (OVCAR-8 ovarian): > 100 µM
TGI (KM12 colon): > 100 µM
TGI (T-47D breast): > 100 µM

CC1=NN(C(=O)c2ccccc2O)C(=O)/C1=C/c1ccco1
TGI (SK-OV-3 ovarian): > 82 µM
TGI (UACC-62 melanoma): 6.27 µM
TGI (PC-3 prostate): 46 µM
TGI (SK-MEL-28 melanoma): > 100 µM
TGI (NCI-H23 lung): > 26.9 µM
TGI (IGROV1 ovarian): > 35.4 µM
TGI (CAKI-1 renal): 19.7 µM
TGI (HCT-116 colon): > 100 µM
TGI (TK-10 renal): > 100 µM
TGI (SNB-19 CNS): > 91.1 µM
TGI (OVCAR-8 ovarian): 97.9 µM
TGI (KM12 colon): > 100 µM
TGI (T-47D breast): > 100 µM

O=C(CC(=O)N(C(=O)/C=C\c1ccccc1)c1ccc(Cl)cc1)N1N=C(c2ccccc2)C(N=Nc2cccc([N+](=O)[O-])c2)C1=O (stereo not drawn)
TGI (SK-OV-3 ovarian): 40.7 µM
TGI (UACC-62 melanoma): 42.1 µM
TGI (PC-3 prostate): 14.4 µM
TGI (SK-MEL-28 melanoma): 98.1 µM
TGI (NCI-H23 lung): 40.2 µM
TGI (IGROV1 ovarian): 48.6 µM
TGI (CAKI-1 renal): > 100 µM
TGI (HCT-116 colon): 13.5 µM
TGI (TK-10 renal): 38.9 µM
TGI (SNB-19 CNS): > 100 µM
TGI (OVCAR-8 ovarian): > 100 µM
TGI (KM12 colon): 38.7 µM
TGI (T-47D breast): > 100 µM

O=C(ON=C1c2ccccc2C(Br)C(Br)c2ccccc21)c1cc([N+](=O)[O-])cc([N+](=O)[O-])c1 (stereo not drawn)
TGI (SK-OV-3 ovarian): 66.8 µM
TGI (UACC-62 melanoma): 38.5 µM
TGI (PC-3 prostate): > 73.5 µM
TGI (SK-MEL-28 melanoma): 34.6 µM
TGI (NCI-H23 lung): 40.1 µM
TGI (IGROV1 ovarian): 26.6 µM
TGI (CAKI-1 renal): 47.9 µM
TGI (HCT-116 colon): 32.5 µM
TGI (TK-10 renal): 45.8 µM
TGI (SNB-19 CNS): 56.8 µM
TGI (OVCAR-8 ovarian): 36.5 µM
TGI (KM12 colon): 37.4 µM
TGI (T-47D breast): 76.7 µM

COC(=O)C1(CCC(C)=O)CCCCCC1=O (stereo not drawn)
TGI (SK-OV-3 ovarian): > 100 µM
TGI (UACC-62 melanoma): > 100 µM
TGI (PC-3 prostate): > 100 µM
TGI (SK-MEL-28 melanoma): > 100 µM
TGI (NCI-H23 lung): > 100 µM
TGI (IGROV1 ovarian): > 100 µM
TGI (CAKI-1 renal): > 100 µM
TGI (HCT-116 colon): > 100 µM
TGI (TK-10 renal): > 100 µM
TGI (SNB-19 CNS): > 100 µM
TGI (KM12 colon): > 100 µM
TGI (T-47D breast): > 100 µM

O=C1/C(=C\c2ccc(O)cc2)CCC/C1=C/c1ccc(Cl)c(Cl)c1
TGI (SK-OV-3 ovarian): 17 µM
TGI (UACC-62 melanoma): 5.24 µM
TGI (PC-3 prostate): 12.7 µM
TGI (SK-MEL-28 melanoma): 13.9 µM
TGI (NCI-H23 lung): 10.1 µM
TGI (IGROV1 ovarian): 1.17 µM
TGI (CAKI-1 renal): 16.7 µM
TGI (HCT-116 colon): 4.01 µM
TGI (TK-10 renal): 10.5 µM
TGI (SNB-19 CNS): 18.3 µM
TGI (KM12 colon): 3.77 µM
TGI (T-47D breast): 33.3 µM

NC(N)=N/N=C/c1c(-c2ccc(Cl)cc2)nc2sccn12
TGI (SK-OV-3 ovarian): 10.8 µM
TGI (UACC-62 melanoma): 3.39 µM
TGI (PC-3 prostate): 3.33 µM
TGI (SK-MEL-28 melanoma): 3.44 µM
TGI (NCI-H23 lung): 19.9 µM
TGI (IGROV1 ovarian): 4.24 µM
TGI (CAKI-1 renal): 10.9 µM
TGI (HCT-116 colon): 2.95 µM
TGI (TK-10 renal): 6.53 µM
TGI (SNB-19 CNS): 20.7 µM
TGI (T-47D breast): 3.22 µM

CCOC(=O)c1cccn1S(=O)(=O)c1cc(Cl)ccc1NC(=O)CC
TGI (SK-OV-3 ovarian): > 100 µM
TGI (UACC-62 melanoma): > 100 µM
TGI (PC-3 prostate): > 100 µM
TGI (SK-MEL-28 melanoma): > 100 µM
TGI (IGROV1 ovarian): > 100 µM
TGI (CAKI-1 renal): > 100 µM
TGI (HCT-116 colon): > 100 µM
TGI (TK-10 renal): > 100 µM
TGI (SNB-19 CNS): > 100 µM
TGI (KM12 colon): > 100 µM
TGI (T-47D breast): > 100 µM

O=C1C(Cl)C2(CC(/C=C/c3ccccc3Cl)=NN2c2cccc(S(=O)(=O)O)c2)N1c1nc2ccccc2s1 (stereo not drawn)
TGI (UACC-62 melanoma): > 100 µM
TGI (PC-3 prostate): > 100 µM
TGI (SK-MEL-28 melanoma): > 100 µM
TGI (NCI-H23 lung): > 100 µM
TGI (IGROV1 ovarian): > 100 µM
TGI (CAKI-1 renal): 38.6 µM
TGI (HCT-116 colon): > 100 µM
TGI (TK-10 renal): 84.6 µM
TGI (SNB-19 CNS): > 100 µM
TGI (OVCAR-8 ovarian): > 100 µM
TGI (KM12 colon): > 100 µM
TGI (T-47D breast): > 100 µM
